Assays:
Experiment in all cases: normalised response (% of control), CellTiter-Glo; higher = more viable cells (100 = DMSO, 0 = benzethonium chloride kill control)
Conditions in all cases: incubation time: 72 h
CAL-85-1 = system: CAL-85-1
In short: (§1)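 CellTox Green fluorescence (485/520 nm) and, after 10 min at room temperature, CellTiter-Glo luminescence were read from breast cancer cell lines incubated 72 h in 384-well plates. Cells were seeded as 20 µl suspension onto compound at 5 concentrations in 10-fold steps over a 10,000-fold range chosen per compound. Each plate was normalised to 0.1 % DMSO (100) and a positive kill control (0). Values are normalised signals, one per concentration.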

MDA-MB-436 = system: MDA-MB-436
In short: as §1

HCC1143 = system: HCC1143
In short: as §1

MDA-MB-453 = system: MDA-MB-453
In short: as §1

HDQ-P1 = system: HDQ-P1
In short: as §1

MDA-MB-231 = system: MDA-MB-231
In short: as §1

CAL-148 = system: CAL-148
In short: as §1

SK-BR-3 = system: SK-BR-3
In short: as §1

Hs578T = system: Hs578T
In short: as §1

HCC1599 = system: HCC1599
In short: as §1

BT-549 = system: BT-549
In short: as §1

MCF-10A = system: MCF-10A
In short: as §1

MDA-MB-468 = system: MDA-MB-468
In short: as §1

DU-4475 = system: DU-4475
In short: as §1

CAL-51 = system: CAL-51
In short: as §1

BT-474 = system: BT-474
In short: as §1

HCC1937 = system: HCC1937
In short: as §1

MFM-223 = system: MFM-223
In short: as §1

CAL-120 = system: CAL-120
In short: as §1

SMILES	normalised response (CAL-85-1)	normalised response (MDA-MB-436)	normalised response (HCC1143)	normalised response (MDA-MB-453)	normalised response (HDQ-P1)	normalised response (MDA-MB-231)	normalised response (CAL-148)	normalised response (SK-BR-3)	normalised response (Hs578T)	normalised response (HCC1599)	normalised response (BT-549)	normalised response (MCF-10A)	normalised response (MDA-MB-468)	normalised response (DU-4475)	normalised response (CAL-51)	normalised response (BT-474)	normalised response (HCC1937)	normalised response (MFM-223)	normalised response (CAL-120)
O=[N+]([O-])c1ccc2c(c1)S(=O)(=O)C=C2 [Stattic] (5 nM)	95.5%	99.5%	101%	106%	98.8%	96.2%	103%	99.3%	104%	114%	105%	111%	99.8%	106%	102%	98.6%	94.6%	101%	95.3%
CNC(=O)c1ccccc1Sc1ccc2c(/C=C/c3ccccn3)n[nH]c2c1 [Axitinib] (10 nM)	102%	103%	102%	107%	103%	107%	101%	106%	97.7%	111%	107%	103%	96.8%	102%	121%	107%	100%	105%	96.7%
COc1cc(Nc2c(C#N)cnc3cc(OCCCN4CCN(C)CC4)c(OC)cc23)c(Cl)cc1Cl [Bosutinib] (10 nM)	94.6%	97.6%	100%	104%	97.3%	96.1%	105%	102%	104%	91.1%	98.4%	96.9%	107%	97.7%	92.3%	100%	95.5%	106%	100%
CN(C)C(=N)NC(=N)N [Metformin] (10 nM)	99.6%	91.7%	98%	80.5%	97.7%	96.5%	97.7%	76.9%	93.2%	93.1%	98.3%	77%	89.4%	87.8%	86.8%	92.3%	90.6%	88.1%	103%
CC(C)n1cnc2c(NCCc3ccc(O)cc3)nc(-c3csc4ccccc34)nc21 [StemRegenin 1] (1 nM)	99.2%	105%	98.1%	115%	103%	99.7%	98.7%	108%	104%	99.6%	96.7%	106%	92.6%	102%	81.3%	102%	98.6%	103%	96.6%
CC[C@H](CO)Nc1nc(NCc2ccccc2)c2ncn(C(C)C)c2n1 [Seliciclib] (1 nM)	100%	104%	101%	104%	102%	107%	106%	107%	100%	92.9%	97.2%	97.1%	98%	106%	88.7%	100%	97.3%	104%	96.7%
O=C(O)CNC(=O)c1c(O)c2ccccc2n(Cc2ccccc2)c1=O [IOX-2] (5 nM)	95.9%	95.4%	94.8%	104%	100%	94.5%	94.5%	95.3%	95%	103%	95.9%	106%	93.6%	97.3%	99.5%	99.3%	95%	92.5%	93.9%
Cc1cn(-c2cc(NC(=O)c3ccc(C)c(Nc4nccc(-c5cccnc5)n4)c3)cc(C(F)(F)F)c2)cn1 [Nilotinib] (10 nM)	100%	94.1%	96.5%	103%	93.5%	91.2%	92.7%	105%	94%	104%	103%	104%	98.8%	106%	85.8%	100%	96.5%	97.3%	88.6%
O=C(O)CNC(=O)c1c(O)c2ccccc2n(Cc2ccccc2)c1=O [IOX-2] (50 nM)	97.1%	96.9%	94.5%	86.3%	95.7%	99.5%	98.7%	–	102%	94.1%	93.9%	103%	92.9%	95.1%	88%	96.9%	93.6%	104%	98.1%
COc1ccc(S(=O)(=O)Nc2cccnc2Nc2ccc(O)cc2)cc1 [ABT-751] (10 nM)	97.5%	108%	106%	105%	98.5%	100%	93.6%	–	93.8%	124%	95.8%	101%	98.2%	102%	117%	101%	97.5%	96.7%	101%
CCn1c(C(=O)N(C2CC2)C2CC2)cc2c3c(ncn3C)c(Nc3cc(C)n(C)n3)nc21 (10 nM)	101%	103%	104%	93.3%	95.6%	100%	107%	–	105%	82.5%	95.2%	99.8%	106%	96.9%	85.3%	93.5%	99.5%	102%	97.3%
CC[C@H](CO)Nc1nc(NCc2ccccc2)c2ncn(C(C)C)c2n1 [Seliciclib] (10 nM)	108%	110%	98.7%	104%	94.5%	104%	110%	–	105%	103%	99.9%	107%	98.9%	103%	113%	102%	104%	101%	91.9%
O=C(CCCCCCC(=O)Nc1ccccc1)NO [Vorinostat] (10 nM)	105%	105%	98.4%	90.3%	94.6%	98.2%	98.6%	–	98.1%	102%	106%	102%	106%	105%	117%	97.6%	101%	101%	87.9%
CC1(COc2ccc3c(c2)ncn3-c2ccc3cccc(N4CCC(N)CC4)c3n2)COC1 [Crenolanib] (10 nM)	99.2%	94.8%	105%	94.6%	103%	106%	110%	–	98.7%	96.2%	95.6%	106%	102%	103%	90.6%	105%	104%	108%	97.8%
CN(C)C(=N)NC(=N)N [Metformin] (100 nM)	95.7%	95.4%	101%	76.8%	99.4%	102%	93.7%	–	94%	97.6%	99%	77.5%	88%	93%	117%	91.7%	99.6%	87.2%	108%
CCNC(=O)CCC/C=C\C[C@@H]1[C@@H](/C=C/[C@@H](O)CCc2ccccc2)[C@H](O)C[C@@H]1O [Bimatoprost] (5.5 nM)	96.1%	102%	99.4%	96.8%	94.5%	101%	92.8%	–	98.4%	96.9%	91.7%	96.4%	96.5%	99.5%	106%	96.6%	96%	96.1%	93.1%
O=[N+]([O-])c1ccc2c(c1)S(=O)(=O)C=C2 [Stattic] (50 nM)	96.5%	96.4%	106%	97.1%	100%	101%	103%	–	103%	110%	94.6%	102%	96.9%	99.9%	107%	98.6%	102%	102%	98.9%
Nc1ccn([C@@H]2O[C@H](CO)[C@@H](O)C2(F)F)c(=O)n1 [Gemcitabine] (1 nM)	101%	95.5%	100%	101%	99.3%	97.4%	95.6%	–	98.1%	109%	95%	109%	95.7%	94%	66%	100%	95.7%	101%	95.9%
C/C(=C\c1csc(C)n1)[C@@H]1C[C@@H]2O[C@]2(C)CCC[C@H](C)[C@H](O)[C@@H](C)C(=O)C(C)(C)[C@@H](O)CC(=O)N1 [Ixabepilone] (1 nM)	99.8%	99.3%	98.1%	107%	98.5%	101%	102%	–	105%	85.5%	95.5%	103%	104%	102%	129%	106%	97.6%	106%	100%
CC(C)(C)c1nc(-c2cccc(NS(=O)(=O)c3c(F)cccc3F)c2F)c(-c2ccnc(N)n2)s1 [Dabrafenib] (2.5 nM)	99%	101%	105%	111%	105%	102%	112%	–	103%	99.8%	99.1%	112%	105%	104%	109%	101%	98.4%	101%	98.5%
CC(=O)[C@]1(O)Cc2c(O)c3c(c(O)c2[C@@H](O[C@H]2C[C@H](N)[C@H](O)[C@H](C)O2)C1)C(=O)c1ccccc1C3=O [Idarubicin] (1 nM)	103%	113%	107%	101%	99.7%	109%	116%	–	99.5%	91.1%	90.5%	105%	97.7%	101%	91.5%	111%	99.9%	109%	104%

— the supplement of paper PMC4862054
